# Source: PMC9133015 (Nature Communications, 2022)
# Values joined by “and” are separate entries in the source; they are usually repeats but may differ in a detail not shown here. Identical values can stand only once.
# Assays:
# [1] = tested on: PC-3 cells; experiment: Colony formation assay; format: cell-based, human; conditions: 40 µM, replicates
# [2] = tested on: DU145 xenograft; experiment: H&E and Ki67 staining of xenograft tumor tissues; format: in vivo, BALB/c nude mice; conditions: DU145, reference drug groups, replicates
# [3] = tested on: 22Rv1 cells; experiment: Anti-proliferation activity assay (CCK8, 72 h); format: cell-based, human; conditions: 22Rv1, replicates
# [4] = tested on: 22Rv1 cells; experiment: Apoptosis assay (Annexin V-APC/PI flow cytometry); format: cell-based, human; conditions: 22Rv1, 20 μM, replicates
# [5] = tested on: PC-3 cells; experiment: Apoptosis assay (Annexin V-APC/PI flow cytometry); format: cell-based, human; conditions: PC-3; 40 µM; replicates
# [6] = tested on: DU145 cells; experiment: Apoptosis assay (Annexin V-APC/PI flow cytometry); format: cell-based, human; conditions: DU145, 40 μM, replicates
# [7] = tested on: 22Rv1 cells; experiment: Migration assay (transwell); format: cell-based, human; conditions: 22Rv1, 20 μM, replicates
# [8] = tested on: PC-3 cells; experiment: Migration assay (transwell); format: cell-based, human; conditions: PC-3; 40 µM; replicates
# [9] = tested on: DU145 cells; experiment: Migration assay (transwell); format: cell-based, human; conditions: DU145, 40 μM, replicates
# [10] = tested on: 22Rv1 cells; experiment: Cell cycle assay (PI flow cytometry); format: cell-based, human; conditions: 22Rv1, 20 μM, replicates
# [11] = tested on: PC-3 cells; experiment: Cell cycle assay (PI flow cytometry); format: cell-based, human; conditions: PC-3, 40 µM, replicates
# [12] = tested on: DU145 cells; experiment: Cell cycle assay (PI flow cytometry); format: cell-based, human; conditions: DU145, 40 μM, replicates
# [13] = tested on: 22Rv1 cells; experiment: Colony formation assay; format: cell-based, human; conditions: 22Rv1, 20 μM, replicates
# [14] = tested on: DU145 cells; experiment: Colony formation assay; format: cell-based, human; conditions: DU145, 40 μM, replicates
# [15] = tested on: RWPE-1 cells; experiment: Anti-proliferation activity assay (CCK8, 72 h); format: cell-based; conditions: RWPE1, replicates
# [16] = tested on: PC-3 cells; experiment: Cell growth assay (5-day course); format: cell-based, human; conditions: PC-3, 40 µM, replicates
# [17] = tested on: PC-3 cells; experiment: Anti-proliferation activity assay (CCK8, 72 h); format: cell-based, human; conditions: PC-3, replicates
# [18] = tested on: DU145 cells; experiment: Anti-proliferation activity assay (CCK8, 72 h); format: cell-based, human; conditions: DU145, replicates
# [19] = tested on: DU145 xenograft; experiment: In vivo antitumor activity, DU145 xenograft mouse model; design: species or system BALB/c nude mice; conditions: for Tumor volume (Fig. 7a): individual mice 1-10, in cm³ (unit assumed)
# [20] = tested on: PC-3 cells; experiment: Invasion assay (transwell); format: cell-based, human; conditions: PC-3; 40 µM; replicates
# [21] = tested on: DU145 cells; experiment: Invasion assay (transwell); format: cell-based, human; conditions: DU145, 40 μM, replicates
# [22] = tested on: 22Rv1 cells; experiment: Invasion assay (transwell); format: cell-based, human; conditions: 22Rv1, 20 μM, replicates
smiles,measurement,setting,value
CNC(=O)c1ccc(N2C(=S)N(c3ccc(C#N)c(C(F)(F)F)c3)C(=O)C2(C)C)cc1F [enzalutamide],Colony formation (cell number),[1],160 cell number and 145 cell number
same,Positive rate ( % ) (Fig. 7f),[2],30.71% and 31.3% and 29.1%
same,optical density,[3]; 2.5 uM,0.81 and 0.838 and 0.791
same,optical density,[3]; 5 uM,0.775 and 0.808 and 0.759
same,optical density,[3]; 10 uM,0.619 and 0.678 and 0.623
same,optical density,[3]; 20 uM,0.455 and 0.528 and 0.472
same,optical density,[3]; 40 uM,0.22 and 0.347 and 0.272
same,optical density,[3]; 80 uM,0.191
same,Apoptosis (%),[4],4.36% and 5.45% and 6.23%
same,Apoptosis (%),[5],5.39% and 5.46% and 5.82%
same,Apoptosis (%),[6],11.89% and 10.52% and 9.68%
same,Cell migration (cell number),[7],1459 cell number and 1378 cell number and 1390 cell number
same,Cell migration (cell number),[8],1100 cell number and 1076 cell number and 923 cell number
same,Cell migration (cell number),[9],4002 cell number and 3988 cell number and 4105 cell number
same,Cell cycle percentages ( % ) G0/G1,[10],69.98% and 71.27% and 73.69%
same,Cell cycle percentages ( % ) G2/M,[10],14.06% and 12.61% and 11.06%
same,Cell cycle percentages ( % ) S,[10],15.96% and 16.12% and 15.25%
same,Cell cycle percentages ( % ) G0/G1,[11]; G0/G1,70.26% and 71.93% and 73.13%
same,Cell cycle percentages ( % ) G2/M,[11]; G2/M,18.02% and 17.63% and 16.26%
same,Cell cycle percentages ( % ) S,[11]; S,11.72% and 10.44% and 10.61%
same,Cell cycle percentages ( % ) G0/G1,[12],57.27% and 58.94% and 59.05%
same,Cell cycle percentages ( % ) G2/M,[12],23.68% and 22.3% and 24.16%
same,Cell cycle percentages ( % ) S,[12],19.05% and 18.76% and 16.79%
same,Colony formation (cell number),[13],560 cell number and 530 cell number and 570 cell number
same,Colony formation (cell number),[14],205 cell number and 218 cell number and 226 cell number
same,optical density,[15]; 2.5 uM,0.992 and 1.025 and 0.996
same,optical density,[15]; 5 uM,0.949 and 0.989 and 0.956
same,optical density,[15]; 10 uM,0.858 and 0.962 and 0.898
same,optical density,[15]; 20 uM,0.786 and 0.838 and 0.802
same,optical density,[15]; 40 uM,0.517 and 0.686 and 0.593
same,optical density,[15]; 80 uM,0.393 and 0.433 and 0.408
same,optical density,[16]; day 0,0.269
same,optical density,[16]; day 1,0.288 and 0.29 and 0.285
same,optical density,[16]; day 2,0.517 and 0.519 and 0.473
same,optical density,[16]; day 3,0.701 and 0.705 and 0.6
same,optical density,[16]; day 4,1.438 and 1.323 and 1.218
same,optical density,[17]; 2.5 uM,1.074 and 1.037 and 1.019
same,optical density,[17]; 5 uM,1.05 and 1.004 and 0.976
same,optical density,[17]; 10 uM,1.021 and 0.964 and 0.924
same,optical density,[17]; 20 uM,0.935 and 0.906 and 0.894
same,optical density,[17]; 40 uM,0.769 and 0.721 and 0.688
same,optical density,[17]; 80 uM,0.516 and 0.456 and 0.403
same,optical density,[18]; 2.5 uM,1.167 and 1.145 and 1.124
same,optical density,[18]; 5 uM,1.127 and 1.118 and 1.073
same,optical density,[18]; 10 uM,1.073 and 1.05 and 1.035
same,optical density,[18]; 20 uM,0.93 and 0.926 and 0.882
same,optical density,[18]; 40 uM,0.602 and 0.626 and 0.546
same,optical density,[18]; 80 uM,0.325 and 0.374 and 0.256
same,antitumor activity (in words),"[19]; DU145 xenograft, 100 mg/kg orally once a day, seven weeks",only delayed the tumor growth
same,Tumor volume (Fig. 7a),[19]; Day 1,0.06831 and 0.0728 and 0.08842 and 0.07149 and 0.08267 and 0.0792 and 0.07365 and 0.09986 and 0.09475 and 0.08367
same,Tumor volume (Fig. 7a),[19]; Day 3,0.1054 and 0.1066 and 0.1367 and 0.1112 and 0.1273 and 0.1097 and 0.1065 and 0.1474 and 0.1553 and 0.1239
same,Tumor volume (Fig. 7a),[19]; Day 5,0.1354 and 0.1343 and 0.1923 and 0.144 and 0.1749 and 0.1417 and 0.1334 and 0.2305 and 0.2202 and 0.1878
same,Tumor volume (Fig. 7a),[19]; Day 7,0.1816 and 0.1822 and 0.2496 and 0.1945 and 0.234 and 0.2013 and 0.2322 and 0.3186 and 0.2993 and 0.2348
same,Tumor volume (Fig. 7a),[19]; Day 9,0.236 and 0.2398 and 0.2946 and 0.2457 and 0.337 and 0.2675 and 0.2935 and 0.3821 and 0.38 and 0.3125
same,Tumor volume (Fig. 7a),[19]; Day 11,0.2749 and 0.3065 and 0.4056 and 0.2756 and 0.3984 and 0.3105 and 0.3205 and 0.5039 and 0.4644 and 0.382
same,Tumor volume (Fig. 7a),[19]; Day 13,0.3292 and 0.3636 and 0.3775 and 0.3177 and 0.4798 and 0.3714 and 0.3893 and 0.5706 and 0.5218 and 0.4116
same,Tumor volume (Fig. 7a),[19]; Day 15,0.4104 and 0.4397 and 0.4958 and 0.3678 and 0.5629 and 0.4479 and 0.4493 and 0.6357 and 0.6164 and 0.4936
same,Tumor volume (Fig. 7a),[19]; Day 17,0.473 and 0.4645 and 0.5899 and 0.4301 and 0.6355 and 0.511 and 0.4922 and 0.7115 and 0.6607 and 0.5477
same,Tumor volume (Fig. 7a),[19]; Day 19,0.458 and 0.4883 and 0.6303 and 0.4489 and 0.6566 and 0.5391 and 0.5247 and 0.7614 and 0.6322 and 0.6372
same,Tumor weight (Fig. 7c),"[19]; reference drug groups, individual mice, in g (unit assumed)",1.15 and 1.34 and 1.28 and 1.42 and 1.33 and 1.5 and 1.37 and 1.08 and 1.22 and 1.16
same,Cell invasion (cell number),[20],2300 cell number and 2405 cell number and 2379 cell number
same,Cell invasion (cell number),[21],1897 cell number and 1923 cell number and 1867 cell number
same,Cell invasion (cell number),[22],1680 cell number and 1543 cell number
